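Grown in 96-well plates, cells were treated for 48 hours with each compound at five concentrations. Insufficient inhibition: endpoint recorded as highest concentration tested. At the GI50, growth is halved. The concentration for full growth arrest is given as TGI.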
Experiments:
Experiment in all cases: NCI-60 cell line screen, 48 h
MDA-MB-435 = system: MDA-MB-435
BT-549 breast = system: BT-549 breast
UO-31 renal = system: UO-31 renal
MDA-MB-231 breast = system: MDA-MB-231 breast
SF-268 CNS = system: SF-268 CNS
HCC-2998 colon = system: HCC-2998 colon
EKVX NSCLC = system: EKVX NSCLC
SNB-75 CNS = system: SNB-75 CNS
TK-10 renal = system: TK-10 renal
LOX IMVI melanoma = system: LOX IMVI melanoma

| SMILES | GI50 (MDA-MB-435) [µM] | TGI (MDA-MB-435) [µM] | GI50 (BT-549 breast) [µM] | TGI (BT-549 breast) [µM] | GI50 (UO-31 renal) [µM] | TGI (UO-31 renal) [µM] | GI50 (MDA-MB-231 breast) [µM] | TGI (MDA-MB-231 breast) [µM] | GI50 (SF-268 CNS) [µM] | TGI (SF-268 CNS) [µM] | GI50 (HCC-2998 colon) [µM] | TGI (HCC-2998 colon) [µM] | GI50 (EKVX NSCLC) [µM] | TGI (EKVX NSCLC) [µM] | GI50 (SNB-75 CNS) [µM] | TGI (SNB-75 CNS) [µM] | GI50 (TK-10 renal) [µM] | TGI (TK-10 renal) [µM] | GI50 (LOX IMVI melanoma) [µM] | TGI (LOX IMVI melanoma) [µM] |
| --- | --- | --- | --- | --- | --- | --- | --- | --- | --- | --- | --- | --- | --- | --- | --- | --- | --- | --- | --- | --- |
| Nc1nn(C(=O)Nc2ccc(Cc3ccccc3)cc2)c2ccc(Cl)cc12 | 0.138 | > 100 | 12.4 | > 66.3 | 5.9 | 82.7 | 9.48 | 50.2 | 13.2 | 52.3 | 0.211 | 1.48 | 5.85 | 98.8 | 15 | 35.2 | 17.7 | 50.3 | 0.137 | 20.1 |
| Clc1ccc(N/N=C/c2ccccn2)nc1 | 0.56 | > 100 | 0.554 | > 55 | 0.303 | 1.57 | 0.463 | > 100 | 0.365 | > 100 | 0.422 | > 100 | 0.352 | > 100 | 1.74 | > 45.8 | 0.442 | > 100 | 0.326 | 18.6 |
| CCOc1ccc(/C=N/Nc2cc(C)nc3ccc(Cl)cc23)cc1 | 1.75 | 3.26 | 1.61 | 3.15 | 1.63 | 2.98 | 1.83 | 3.38 | 2.05 | 3.9 | 2.19 | 3.7 | 2.18 | 5.25 | 1.86 | 3.64 | 1.91 | 3.37 | 1.73 | 3.14 |
| Oc1ccc(Cl)cc1Cc1cc(Cl)cc(Cc2cc(Cl)ccc2O)c1O |  | 9.3 |  | 9.61 |  | 10.3 |  | 8.83 |  | 12 |  | 2.79 |  | 7.19 |  | 10.3 |  | 9.17 |  | 9.82 |
| COc1cc2c3c(n(CCCN=[N+]=[N-])c(=O)c2cc1OC)-c1ccc(N)cc1C3=O | 0.479 | 1.65 | 0.244 | 6.4 | 0.146 | 0.803 | 0.625 | 2.18 | 0.34 | > 32.4 | 0.258 | 0.856 | 1.09 | 8.55 | 0.126 | 0.69 | 0.71 | 3.93 | 0.0923 | 0.466 |
| O=C(/C=C\c1cccc([N+](=O)[O-])c1)c1ccccc1 | 3.53 | 14.4 | 2.85 | 12.1 | 1.79 | 4.11 | 9.72 | 25.1 | 5.46 | 20.5 | 2.81 | 9.74 | 13.1 | 29.1 | 9.82 | 30.5 | 2.05 | 5.32 | 1.76 | 3.82 |
